Data published in ChEMBL document CHEMBL1201862, “PubChem BioAssay data set” (2004).
Activity calls are given as the source filed them.

Key:
[1] = alpha-synuclein stem-loop luciferase translation blockers – H4 neuroglioma cells, luminescence, confirmation (AID 1988); assay type: functional, cell-based
[2] = biological target: Lysine-specific demethylase 4C (Homo sapiens, UniProt Q9H3R0); assay: inhibition of JMJD2C H3K9me3 demethylation – biochemical, DELFIA europium, cherry-picked samples, dose response (AID 488835); assay type: functional
[3] = luciferase reporter signal suppression in cells – H4 neuroglioma cells, luminescence, dose response (AID 1990); assay type: functional, cell-based
INS1 = assay: INS-1E survival protection against cytokine death – cell-based, luminescence, retest, dose response (AID 449756); assay type: functional; details: Rattus norvegicus;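 note: cell death triggered by IL-1 beta plus TNF-alpha plus IFN-gamma mixture; protective hits raise ATP signal compared with cytokine alone wells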
[4] = Luminescence Cell-Based Dose Response HTS to Identify Inhibitors of 5'UTR Stem-Loop Driven Prion Protein mRNA Translation in H4 Neuroglioblastoma Cells. [Related pubchem assays: 1827 (Project Summary), 1813 (Primary HTS)]; assay type: functional
[5] = biological target: T1, Alkaline phosphatase, tissue-nonspecific isozyme (Homo sapiens, UniProt P05186); assay: TNAP enzyme inhibition by screening hits, dose response, selectivity assay for mouse IAP inhibitor project, biochemical, human TNAP, uHTS hits (AID 488906); assay type: functional
T1 sequence (P05186 whole entry): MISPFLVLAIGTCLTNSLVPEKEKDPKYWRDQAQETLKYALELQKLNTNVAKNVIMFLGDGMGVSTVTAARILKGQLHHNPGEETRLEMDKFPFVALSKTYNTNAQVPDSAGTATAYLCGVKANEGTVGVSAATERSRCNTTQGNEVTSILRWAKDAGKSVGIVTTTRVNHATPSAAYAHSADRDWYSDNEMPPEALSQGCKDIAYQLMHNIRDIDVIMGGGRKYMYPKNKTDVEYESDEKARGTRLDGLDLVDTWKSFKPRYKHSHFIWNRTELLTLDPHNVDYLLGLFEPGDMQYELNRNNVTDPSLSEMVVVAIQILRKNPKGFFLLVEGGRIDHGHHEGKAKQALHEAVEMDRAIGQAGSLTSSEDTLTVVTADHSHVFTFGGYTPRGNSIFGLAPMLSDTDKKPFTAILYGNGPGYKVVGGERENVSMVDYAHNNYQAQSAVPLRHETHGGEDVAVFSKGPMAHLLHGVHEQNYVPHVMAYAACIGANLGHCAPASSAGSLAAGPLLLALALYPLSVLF

[6] = biological target: Intestinal-type alkaline phosphatase (Mus musculus, UniProt P24822); assay: PubChem AID 488785; assay type: functional
[7] = biological target: T2, Intestinal-type alkaline phosphatase (Homo sapiens, UniProt P09923); assay: inhibition of human intestinal alkaline phosphatase – biochemical, dose response (AID 488876); assay type: functional
T2 sequence (P09923 whole entry): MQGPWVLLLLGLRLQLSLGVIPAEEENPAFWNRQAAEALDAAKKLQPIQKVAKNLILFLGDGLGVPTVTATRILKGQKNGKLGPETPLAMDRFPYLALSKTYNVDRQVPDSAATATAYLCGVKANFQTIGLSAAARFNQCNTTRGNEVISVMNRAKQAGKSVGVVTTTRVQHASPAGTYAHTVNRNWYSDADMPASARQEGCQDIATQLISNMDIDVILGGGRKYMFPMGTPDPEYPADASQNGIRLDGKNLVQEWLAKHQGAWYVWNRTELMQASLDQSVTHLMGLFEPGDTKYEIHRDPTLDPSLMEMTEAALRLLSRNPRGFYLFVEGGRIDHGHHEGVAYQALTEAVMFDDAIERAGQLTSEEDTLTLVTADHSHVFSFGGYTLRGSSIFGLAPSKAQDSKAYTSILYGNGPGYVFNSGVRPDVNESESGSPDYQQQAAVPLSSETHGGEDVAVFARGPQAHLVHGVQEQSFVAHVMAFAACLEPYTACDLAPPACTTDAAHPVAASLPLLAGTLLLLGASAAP

[8] = biological target: T2, Intestinal-type alkaline phosphatase; assay: human intestinal alkaline phosphatase activators, dose response, biochemical, luminescence, uHTS hits (AID 463120); assay type: functional
[9] = biological target: T2, Intestinal-type alkaline phosphatase; assay: Dose Response confirmation of uHTS hits from a small molecule inhibitors of human intestinal alkaline phosphatase via a luminescent assay. [Related pubchem assays (depositor defined):AID2544, AID2574]; assay type: functional
Apelin receptor = Apelin receptor (Homo sapiens, UniProt P35414); assay: apelin receptor antagonists, arrestin read-out – cell-based, luminescent, enzyme-fragment complementation, selectivity assay for CCR6 antagonist project, SAR follow-up (AID 588359); assay type: functional
Beta-galactosidase = Beta-galactosidase (Escherichia coli, UniProt Q8VNN2); assay: detection-enzyme interference by beta-gal modulators – biochemical, E. coli enzyme, set 3, artefact control for CCR6 antagonist project, dose response (AID 504712); assay type: functional
Sequence of Beta-galactosidase (Q8VNN2 whole entry): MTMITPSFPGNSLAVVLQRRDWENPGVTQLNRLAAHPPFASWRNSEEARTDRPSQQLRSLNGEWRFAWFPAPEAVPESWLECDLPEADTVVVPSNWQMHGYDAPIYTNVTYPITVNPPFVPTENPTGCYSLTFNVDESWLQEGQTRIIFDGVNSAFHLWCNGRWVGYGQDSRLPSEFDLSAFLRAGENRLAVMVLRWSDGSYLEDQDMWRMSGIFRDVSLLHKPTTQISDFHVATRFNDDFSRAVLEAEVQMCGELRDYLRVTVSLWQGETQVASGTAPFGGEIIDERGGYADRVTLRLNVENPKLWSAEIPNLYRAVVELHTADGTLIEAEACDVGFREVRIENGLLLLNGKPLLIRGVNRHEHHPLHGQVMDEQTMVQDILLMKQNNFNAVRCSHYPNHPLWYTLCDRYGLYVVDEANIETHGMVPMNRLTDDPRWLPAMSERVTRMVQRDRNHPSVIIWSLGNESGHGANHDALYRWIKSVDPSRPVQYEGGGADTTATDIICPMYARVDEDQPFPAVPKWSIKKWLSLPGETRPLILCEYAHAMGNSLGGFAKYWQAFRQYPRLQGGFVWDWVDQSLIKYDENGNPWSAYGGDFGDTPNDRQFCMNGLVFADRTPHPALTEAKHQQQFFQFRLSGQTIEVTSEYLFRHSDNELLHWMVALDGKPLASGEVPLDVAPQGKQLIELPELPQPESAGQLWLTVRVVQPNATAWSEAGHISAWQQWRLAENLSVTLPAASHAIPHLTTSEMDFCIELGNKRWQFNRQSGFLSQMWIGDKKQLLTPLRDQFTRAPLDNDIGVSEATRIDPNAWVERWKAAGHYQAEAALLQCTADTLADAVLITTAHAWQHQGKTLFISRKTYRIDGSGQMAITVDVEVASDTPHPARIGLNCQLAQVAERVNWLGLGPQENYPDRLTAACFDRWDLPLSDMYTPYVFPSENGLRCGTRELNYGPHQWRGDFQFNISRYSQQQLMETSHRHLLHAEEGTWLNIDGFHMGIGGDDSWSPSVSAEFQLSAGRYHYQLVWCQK

SUMO-activating enzyme [10] = biological target: T3, SUMO-activating enzyme (Homo sapiens, UniProt Q9UBT2); assay: blockers of UBC9-mediated SUMO conjugation – biochemical, AlphaScreen, SUMOylation inhibitor project, confirmation (AID 2018); assay type: functional
T3 sequence (Q9UBE0 whole entry): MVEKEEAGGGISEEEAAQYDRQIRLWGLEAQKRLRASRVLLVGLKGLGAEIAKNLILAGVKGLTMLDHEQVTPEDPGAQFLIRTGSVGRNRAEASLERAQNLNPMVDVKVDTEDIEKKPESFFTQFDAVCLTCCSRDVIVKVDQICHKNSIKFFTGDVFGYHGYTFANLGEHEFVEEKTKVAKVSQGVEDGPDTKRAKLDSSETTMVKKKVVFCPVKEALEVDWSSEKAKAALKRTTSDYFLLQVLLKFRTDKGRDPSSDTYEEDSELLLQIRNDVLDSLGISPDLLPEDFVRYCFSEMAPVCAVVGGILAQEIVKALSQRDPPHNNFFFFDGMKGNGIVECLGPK
T3 sequence (Q9UBT2 whole entry): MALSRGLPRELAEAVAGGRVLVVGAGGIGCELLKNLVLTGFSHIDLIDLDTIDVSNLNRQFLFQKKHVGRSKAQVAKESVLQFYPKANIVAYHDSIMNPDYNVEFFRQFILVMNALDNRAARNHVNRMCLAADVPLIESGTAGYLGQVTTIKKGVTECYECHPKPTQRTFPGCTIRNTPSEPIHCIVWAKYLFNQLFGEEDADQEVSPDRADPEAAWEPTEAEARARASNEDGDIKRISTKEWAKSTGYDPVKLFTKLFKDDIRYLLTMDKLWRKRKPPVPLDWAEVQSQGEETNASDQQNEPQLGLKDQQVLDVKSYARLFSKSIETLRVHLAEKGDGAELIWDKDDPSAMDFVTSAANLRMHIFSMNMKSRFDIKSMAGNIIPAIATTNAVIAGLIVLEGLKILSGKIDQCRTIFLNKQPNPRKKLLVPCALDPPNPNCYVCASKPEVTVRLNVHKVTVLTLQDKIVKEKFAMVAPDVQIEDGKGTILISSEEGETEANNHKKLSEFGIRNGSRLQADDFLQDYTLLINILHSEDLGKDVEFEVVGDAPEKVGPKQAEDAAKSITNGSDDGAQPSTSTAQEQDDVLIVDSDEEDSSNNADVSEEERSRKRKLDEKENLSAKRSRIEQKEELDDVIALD

[11] = biological target: T4, Replicative DNA helicase DnaB (Mycobacterium tuberculosis, UniProt P9WMR3); assay: DnaB intein splicing inhibitors, dose response, biochemical, cell-free fluorescence (AID 449749); assay type: functional
T4 sequence (P9WMR3 whole entry): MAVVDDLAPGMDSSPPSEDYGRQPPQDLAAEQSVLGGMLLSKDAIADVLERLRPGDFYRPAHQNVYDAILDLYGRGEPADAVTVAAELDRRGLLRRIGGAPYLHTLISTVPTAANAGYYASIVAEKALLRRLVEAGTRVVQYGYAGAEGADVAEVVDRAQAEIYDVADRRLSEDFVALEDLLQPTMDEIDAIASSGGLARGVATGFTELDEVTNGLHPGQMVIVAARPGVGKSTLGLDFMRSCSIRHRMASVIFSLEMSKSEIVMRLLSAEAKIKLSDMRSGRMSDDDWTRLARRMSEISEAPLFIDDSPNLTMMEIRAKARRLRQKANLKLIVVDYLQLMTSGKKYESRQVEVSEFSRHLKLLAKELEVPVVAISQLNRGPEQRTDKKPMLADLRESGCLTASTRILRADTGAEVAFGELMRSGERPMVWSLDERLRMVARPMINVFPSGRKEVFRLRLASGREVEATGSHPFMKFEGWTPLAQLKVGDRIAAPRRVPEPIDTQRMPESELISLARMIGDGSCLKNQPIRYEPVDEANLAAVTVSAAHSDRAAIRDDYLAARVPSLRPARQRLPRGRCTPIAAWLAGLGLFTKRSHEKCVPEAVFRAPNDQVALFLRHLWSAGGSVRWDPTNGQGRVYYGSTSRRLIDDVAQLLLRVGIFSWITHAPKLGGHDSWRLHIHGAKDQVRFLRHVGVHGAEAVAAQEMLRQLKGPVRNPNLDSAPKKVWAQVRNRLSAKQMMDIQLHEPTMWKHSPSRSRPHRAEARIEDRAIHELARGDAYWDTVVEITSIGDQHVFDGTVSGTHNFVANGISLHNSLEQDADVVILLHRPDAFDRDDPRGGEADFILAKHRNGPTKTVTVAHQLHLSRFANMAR

SUMO-activating enzyme [12] = biological target: T3, SUMO-activating enzyme; assay: blockers of SAE1/SAE2–UBC9 SUMO transfer – biochemical, HTRF, uHTS, primary screen (AID 2006); assay type: protein-complex assay
Protein RecA = biological target: T5, Protein RecA (Mycobacterium tuberculosis, UniProt P9WHJ3); assay: Fluorescence Cell-Free Homogeneous Dose Retest to Identify Inhibitors of RecA-Intein Splicing Activity. [Related pubchem assays (depositor defined):AID2097, AID2223, AID489010, AID492950]; assay type: functional
T5 sequence (P9WHJ3 whole entry): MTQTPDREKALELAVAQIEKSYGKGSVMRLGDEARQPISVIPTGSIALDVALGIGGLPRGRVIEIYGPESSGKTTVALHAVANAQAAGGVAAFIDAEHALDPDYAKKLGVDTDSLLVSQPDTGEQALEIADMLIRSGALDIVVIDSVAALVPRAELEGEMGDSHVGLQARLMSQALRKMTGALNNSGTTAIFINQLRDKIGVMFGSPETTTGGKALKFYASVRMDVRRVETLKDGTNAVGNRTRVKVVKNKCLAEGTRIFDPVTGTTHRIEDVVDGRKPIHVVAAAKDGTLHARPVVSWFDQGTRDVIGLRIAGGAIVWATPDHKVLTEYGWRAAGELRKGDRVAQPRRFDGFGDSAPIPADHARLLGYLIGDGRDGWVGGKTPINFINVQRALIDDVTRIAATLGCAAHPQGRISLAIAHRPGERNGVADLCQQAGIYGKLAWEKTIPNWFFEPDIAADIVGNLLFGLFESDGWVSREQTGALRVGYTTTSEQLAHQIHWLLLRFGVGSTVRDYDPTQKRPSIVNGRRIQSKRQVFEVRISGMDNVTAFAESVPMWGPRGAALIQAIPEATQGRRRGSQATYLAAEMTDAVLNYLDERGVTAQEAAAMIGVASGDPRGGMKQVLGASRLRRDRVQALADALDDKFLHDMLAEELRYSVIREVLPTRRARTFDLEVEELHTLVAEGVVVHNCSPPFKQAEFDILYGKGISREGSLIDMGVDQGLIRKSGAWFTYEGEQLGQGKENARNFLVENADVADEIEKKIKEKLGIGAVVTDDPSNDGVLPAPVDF

Genome polyprotein = Genome polyprotein (dengue virus type 2, UniProt P29990); assay: flavivirus cap methylation enzyme inhibition – biochemical, confirmation dose response, primary screen (AID 588689); assay type: functional
[13] = biological target: T6, Delta-type opioid receptor (Homo sapiens, UniProt P41143); assay: HTS Image-Based Screen for Agonists of the DOR Receptor. [Related pubchem assays (depositor defined):AID1777, AID1786, AID2133]; assay type: functional
T6 sequence (P41143 whole entry): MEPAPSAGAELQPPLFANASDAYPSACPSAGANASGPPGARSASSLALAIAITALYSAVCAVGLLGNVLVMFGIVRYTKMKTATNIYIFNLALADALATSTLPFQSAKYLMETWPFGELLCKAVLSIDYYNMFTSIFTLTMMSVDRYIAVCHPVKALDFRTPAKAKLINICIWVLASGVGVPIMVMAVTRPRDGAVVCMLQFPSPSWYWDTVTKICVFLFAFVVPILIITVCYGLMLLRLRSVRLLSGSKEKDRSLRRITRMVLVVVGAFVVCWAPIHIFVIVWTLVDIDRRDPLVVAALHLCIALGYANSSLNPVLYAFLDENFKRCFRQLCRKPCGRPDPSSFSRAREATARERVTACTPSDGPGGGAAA

[14] = biological target: T7, Kappa-type opioid receptor (Homo sapiens, UniProt P41145); assay type: functional
T7 sequence (P41145 whole entry): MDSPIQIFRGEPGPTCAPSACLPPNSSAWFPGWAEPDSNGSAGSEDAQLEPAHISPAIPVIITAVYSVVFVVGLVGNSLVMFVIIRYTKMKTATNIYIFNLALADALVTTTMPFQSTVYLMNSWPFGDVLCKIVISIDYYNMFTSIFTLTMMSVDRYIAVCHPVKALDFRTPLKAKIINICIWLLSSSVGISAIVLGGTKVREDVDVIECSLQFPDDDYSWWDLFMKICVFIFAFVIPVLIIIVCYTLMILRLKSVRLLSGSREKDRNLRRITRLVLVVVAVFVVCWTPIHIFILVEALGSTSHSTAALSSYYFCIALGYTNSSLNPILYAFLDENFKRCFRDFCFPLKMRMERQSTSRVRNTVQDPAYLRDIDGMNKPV

[15] = biological target: T6, Delta-type opioid receptor; assay: HTS Image-Based Screen for Antagonists of the DOR Receptor. [Related pubchem assays (depositor defined):AID1777, AID1785, AID1786, AID2133]; assay type: functional
Mu-type opioid receptor = Mu-type opioid receptor (Homo sapiens, UniProt P35372); assay: HTS Image-Based Screen for Agonists of the MOR Receptor. [Related pubchem assays (depositor defined):AID1777, AID1785, AID1786, AID2133]; assay type: functional;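 note: imaging of beta-arrestin GFP recruitment into spots after receptor activation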
[16] = biological target: T7, Kappa-type opioid receptor; assay type: functional; remark: listed apart in the source
Cannabinoid receptor 1 [17] = biological target: T8, Cannabinoid receptor 1 (Homo sapiens, UniProt P21554); assay: SAR analysis of antagonists of the Cannabinoid Receptor 1 using an Image-Based Assay - Set 2. [Related pubchem assays (depositor defined):AID2013, AID2026]; assay type: functional
T8 sequence (P21554 whole entry): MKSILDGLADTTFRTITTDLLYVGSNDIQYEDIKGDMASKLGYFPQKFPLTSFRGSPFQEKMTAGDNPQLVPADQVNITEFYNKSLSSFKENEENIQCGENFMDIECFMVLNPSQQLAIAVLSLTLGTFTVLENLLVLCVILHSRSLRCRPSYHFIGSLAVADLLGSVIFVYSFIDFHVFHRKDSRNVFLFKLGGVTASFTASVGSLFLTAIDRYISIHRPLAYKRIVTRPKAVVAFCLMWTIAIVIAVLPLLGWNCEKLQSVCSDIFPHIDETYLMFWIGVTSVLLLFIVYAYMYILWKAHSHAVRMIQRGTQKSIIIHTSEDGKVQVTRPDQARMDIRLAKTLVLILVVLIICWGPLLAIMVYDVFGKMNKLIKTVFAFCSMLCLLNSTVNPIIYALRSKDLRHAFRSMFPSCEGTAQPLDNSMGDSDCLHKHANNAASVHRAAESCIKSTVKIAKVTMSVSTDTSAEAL

Cannabinoid receptor 2 [18] = biological target: T9, Cannabinoid receptor 2 (Homo sapiens, UniProt P34972); assay: SAR analysis of agonists of the Cannabinoid Receptor 2 using an Image-Based Assay. [Related pubchem assays (depositor defined):AID2013, AID2026]; assay type: functional
T9 sequence (P34972 whole entry): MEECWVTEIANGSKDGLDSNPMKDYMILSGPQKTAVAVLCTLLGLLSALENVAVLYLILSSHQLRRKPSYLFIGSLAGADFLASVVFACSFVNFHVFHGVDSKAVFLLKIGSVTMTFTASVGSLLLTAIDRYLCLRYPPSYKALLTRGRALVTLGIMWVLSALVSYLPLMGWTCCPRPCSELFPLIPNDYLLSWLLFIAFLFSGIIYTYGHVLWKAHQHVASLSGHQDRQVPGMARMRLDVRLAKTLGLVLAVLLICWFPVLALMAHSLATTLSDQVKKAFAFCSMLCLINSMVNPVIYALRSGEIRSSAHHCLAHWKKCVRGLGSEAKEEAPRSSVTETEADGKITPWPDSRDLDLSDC

[19] = biological target: T10, G-protein coupled receptor 55 (Homo sapiens, UniProt Q9Y2T6); assay: blockade of LPI-induced GPR55 arrestin translocation – imaging, U2OS, beta-arrestin-GFP, LPI agonist, set 2, SAR follow-up (AID 2820); assay type: functional
T10 sequence (Q9Y2T6 whole entry): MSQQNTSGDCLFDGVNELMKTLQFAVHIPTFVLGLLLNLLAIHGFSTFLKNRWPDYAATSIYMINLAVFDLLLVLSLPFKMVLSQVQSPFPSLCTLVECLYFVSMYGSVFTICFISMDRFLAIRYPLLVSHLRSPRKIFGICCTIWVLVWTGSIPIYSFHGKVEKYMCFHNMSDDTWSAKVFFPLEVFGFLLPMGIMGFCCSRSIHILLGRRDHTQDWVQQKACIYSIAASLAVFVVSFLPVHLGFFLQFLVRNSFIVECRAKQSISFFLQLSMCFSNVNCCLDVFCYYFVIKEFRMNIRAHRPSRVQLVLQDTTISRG

Cannabinoid receptor 2 [20] = biological target: T9, Cannabinoid receptor 2; assay: SAR analysis of antagonists of the Cannabinoid Receptor 2 using an Image-Based Assay. [Related pubchem assays (depositor defined):AID2013, AID2026]; assay type: functional
[21] = biological target: T10, G-protein coupled receptor 55; assay: inhibition of LPI-stimulated GPR55 beta-arrestin translocation – imaging, U2OS, beta-arrestin-GFP, LPI agonist, primary screen (AID 2013); assay type: functional;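 note: antagonist potency measured as reduced agonist-driven arrestin aggregation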
Cannabinoid receptor 1 [22] = biological target: T8, Cannabinoid receptor 1; assay: SAR analysis of agonists of the Cannabinoid Receptor 1 using an Image-Based Assay - Set 2. [Related pubchem assays (depositor defined):AID2013, AID2026]; assay type: functional
[23] = biological target: T11, G-protein coupled receptor 35 (Homo sapiens, UniProt Q9HC97); assay: SAR analysis of Antagonists of the GPR35 Receptor using an Image-Based Assay - Set 3. [Related pubchem assays (depositor defined):AID2013, AID2026]; assay type: functional
T11 sequence (Q9HC97 whole entry): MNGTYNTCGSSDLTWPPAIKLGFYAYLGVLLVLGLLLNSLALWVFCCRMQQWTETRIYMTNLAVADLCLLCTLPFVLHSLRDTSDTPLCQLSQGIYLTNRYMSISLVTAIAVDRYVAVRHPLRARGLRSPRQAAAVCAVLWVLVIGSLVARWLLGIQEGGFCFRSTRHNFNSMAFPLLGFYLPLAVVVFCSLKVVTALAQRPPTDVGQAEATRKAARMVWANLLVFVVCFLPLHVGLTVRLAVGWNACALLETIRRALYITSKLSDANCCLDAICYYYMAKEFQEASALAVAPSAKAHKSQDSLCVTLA

[24] = biological target: T11, G-protein coupled receptor 35; assay: SAR analysis of Agonists of the GPR35 Receptor using an Image-Based Assay - Set 2. [Related pubchem assays (depositor defined):AID2013, AID2026]; assay type: functional

In the case of `O=C(CNC(=O)c1ccccc1O)N/N=C/c1cc(Br)ccc1OC(=O)/C=C/c1ccco1`, the EC50 [1] is reported as 9.47 µM (active), the AC50 [2] is reported as 10.8 µM (active) and the EC50 [3] is reported as 10.7 µM (active). The AC50 (INS1) was 3.13 µM (active) and the EC50 [4] was 7.28 µM (active).
In the case of `CCOC(=O)c1ccc(N2CCN(c3ccccc3F)CC2)c(NC(=O)Nc2ccccc2)c1`, the IC50 [5] is reported as > 100 µM (inactive), the IC50 [6] is reported as 8.66 µM (active) and the IC50 [7] is reported as > 100 µM (inactive).
In the case of `CN1CCN(CCNC(=O)Cn2c(=O)c3cccn3c3ccc(F)cc32)CC1`, the EC50 [8] is reported as > 100 µM (inactive) and the IC50 [9] is reported as > 100 µM (inactive).
In the case of `CC(C)(C)c1ccc2c(c1)OC(C(=O)N/N=C\c1ccccn1)CO2` (stereo not given), the IC50 (Apelin receptor) is reported as 28.8 µM (inactive) and the IC50 (Beta-galactosidase) is reported as > 66.6 µM (inactive).
For `COc1cc(/C=C2\C(=O)N(c3ccc(S(N)(=O)=O)cc3)N=C2C)ccc1OC(=O)c1ccco1`, the IC50 (SUMO-activating enzyme [10]) was 6.36 µM (active), the AC50 [11] was > 380 µM (inactive) and the IC50 (SUMO-activating enzyme [12]) was > 100 µM (inactive). For the same compound, the EC50 (Protein RecA) was 23.8 µM (active) and the IC50 (Genome polyprotein) was 73.2 µM (active).
With `COc1ccc(C[C@@H]2CN3C(=NC[C@@H]3C)N2CCNC(=O)c2ccc(C)c(Br)c2)cc1` the EC50 [13] was > 32 µM (inactive), the EC50 [14] was under 0.5 µM and the IC50 [15] was > 32 µM (inactive). For the same compound, the EC50 (Mu-type opioid receptor) was > 32 µM (inactive) and the EC50 [16] was 0.118 µM.
With `Cc1ccc2c(c1)C(c1ccc(O)cc1)(c1ccc(O)cc1)C(=O)N2C` the IC50 (Cannabinoid receptor 1 [17]) was 5.74 µM (active), the EC50 (Cannabinoid receptor 2 [18]) was > 32 µM (inactive) and the IC50 [19] was 1 µM (active). The IC50 (Cannabinoid receptor 2 [20]) was > 32 µM (inactive), the IC50 [21] was 1.57 µM (active) and the EC50 (Cannabinoid receptor 1 [22]) was > 32 µM (inactive). For the same compound, the IC50 [23] was > 32 µM (inactive) and the EC50 [24] was > 32 µM (inactive).
